The record followed here is ChEMBL document CHEMBL4325823 (Medchemcomm, 2018).

The structures appear in SMILES notation. In brackets after ≈: the same amount, converted by molar mass. Some results are limits rather than exact numbers.

In one assay the test system is Bacteroides sp. Kind of assay: Antibacterial activity against Bacteroides sp. In kind it is functional.
Assay [1] deals with Enterobacteriaceae. Kind of assay: Inhibition of MBL in Enterobacteriaceae assessed as potentiation of aztreonam-induced antibacterial activity by measuring aztreonam MIC at 2 ug/ml by agar dilution method (reference value: 4.68 ug/ml).
The subject of assay [2] is Enterobacteriaceae. Kind of assay: Inhibition of ESBL in Enterobacteriaceae assessed as potentiation of piperacillin-induced antibacterial activity by measuring piperacillin MIC at 2 ug/ml by agar dilution method.
Assay [3] relates to Enterobacteriaceae. Kind of assay: Inhibition of OXA in Enterobacteriaceae assessed as potentiation of cefepime-induced antibacterial activity by measuring cefepime MIC at 2 ug/ml by agar dilution method.
In assay [4] the test system is Enterobacteriaceae. Kind of assay: Inhibition of ESBL in Enterobacteriaceae assessed as potentiation of aztreonam-induced antibacterial activity by measuring aztreonam MIC at 2 ug/ml by agar dilution method.
The nature of assay [5]: Inhibition of Enterobacteriaceae PBP2 by Bocillin FL-based fluorescence assay.
Assay [6] deals with Enterobacteriaceae. Kind of assay: Inhibition of OXA in Enterobacteriaceae assessed as potentiation of aztreonam-induced antibacterial activity by measuring aztreonam MIC at 2 ug/ml by agar dilution method.
In assay [7] the test system is Enterobacteriaceae. Kind of assay: Inhibition of OXA in Enterobacteriaceae assessed as potentiation of piperacillin-induced antibacterial activity by measuring piperacillin MIC at 2 ug/ml by agar dilution method.
Assay [8] deals with Enterobacteriaceae. Kind of assay: Inhibition of ESBL in Enterobacteriaceae assessed as potentiation of cefepime-induced antibacterial activity by measuring cefepime MIC at 2 ug/ml by agar dilution method.
For assay [9], the system named is Enterobacteriaceae. Kind of assay: Inhibition of KPC in Enterobacteriaceae assessed as potentiation of cefepime-induced antibacterial activity by measuring cefepime MIC at 2 ug/ml by agar dilution method.
Assay [10] deals with Enterobacteriaceae. Kind of assay: Inhibition of KPC in Enterobacteriaceae assessed as potentiation of aztreonam-induced antibacterial activity by measuring aztreonam MIC at 2 ug/ml by agar dilution method.
For assay [11], the system named is Enterobacteriaceae. Kind of assay: Inhibition of KPC in Enterobacteriaceae assessed as potentiation of meropenem-induced antibacterial activity by measuring meropenem MIC at 2 ug/ml by agar dilution method (reference value: 8.43 ug/ml).
The subject of assay [12] is Enterobacteriaceae. Kind of assay: Inhibition of KPC in Enterobacteriaceae assessed as potentiation of piperacillin-induced antibacterial activity by measuring piperacillin MIC at 2 ug/ml by agar dilution method.

`C[C@@H](O)[C@H]1C(=O)N2C(C(=O)O)=C(SCCNC=N)C[C@H]12` [IMIPENEM ANHYDROUS]: in the assay with Bacteroides sp., the MIC90 is at most 1 µg/mL.
In the case of `NCCONC(=O)[C@@H]1CC[C@@H]2CN1C(=O)N2OS(=O)(=O)O` [NACUBACTAM], the MIC in the assay with Enterobacteriaceae [1] was 0.072 µg/mL; with Enterobacteriaceae [2] it was below 1 µg/mL; in the assay on Enterobacteriaceae [3] it was below 1 µg/mL; in the assay with Enterobacteriaceae [4], below 1 µg/mL; with Enterobacteriaceae [6], below 1 µg/mL; in the assay on Enterobacteriaceae [7], below 1 µg/mL. Also, the MIC in the assay on Enterobacteriaceae [8], in the assay with Enterobacteriaceae [9], with Enterobacteriaceae [10], in the assay with Enterobacteriaceae [11] and with Enterobacteriaceae [12] was below 1 µg/mL each time. In addition, the IC50 in assay [5] amounted to 0.12 µg/mL (≈ 0.37 µM).
